# Where two headings read alike, the source gives them in different places.
# Legend:
# [1] = target: T1, equilibrative nucleoside transporter 4 (hENT4) (Homo sapiens, UniProt Q7RTT9); assay: inhibition of [3H]2-chloroadenosine uptake at pH […] in PK15-hENT4 cells; format: cell-based
# T1 construct: gene SLC29A4
# T1 sequence (Q7RTT9 1-530): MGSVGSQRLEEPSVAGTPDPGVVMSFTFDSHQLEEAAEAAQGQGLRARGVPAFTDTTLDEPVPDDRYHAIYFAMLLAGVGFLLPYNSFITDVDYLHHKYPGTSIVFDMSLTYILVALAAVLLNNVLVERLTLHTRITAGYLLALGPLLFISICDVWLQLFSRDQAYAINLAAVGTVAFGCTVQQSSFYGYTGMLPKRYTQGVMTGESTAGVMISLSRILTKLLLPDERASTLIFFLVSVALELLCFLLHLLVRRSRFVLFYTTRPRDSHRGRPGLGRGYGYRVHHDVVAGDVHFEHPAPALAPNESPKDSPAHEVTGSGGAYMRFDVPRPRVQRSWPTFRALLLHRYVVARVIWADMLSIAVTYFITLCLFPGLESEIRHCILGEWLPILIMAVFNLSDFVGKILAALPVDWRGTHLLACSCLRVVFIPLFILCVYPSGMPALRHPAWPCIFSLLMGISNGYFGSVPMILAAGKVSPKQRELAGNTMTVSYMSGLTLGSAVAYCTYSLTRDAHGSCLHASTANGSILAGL
# [2] = target: T1, equilibrative nucleoside transporter 4 (hENT4); assay: radiolabelled substrate uptake kinetics (Km, pH […] high-affinity component) and efflux in PK15-hENT4 cells; format: cell-based
IC50 ([1]; read-out: IC50) [nM],Compound,further results
~2300,"CCN1/C(=C/c2ccc3ccccc3[n+]2CC)C=Cc2ccccc21 [D22, decynium 22]",
,"C[n+]1ccc(-c2ccccc2)cc1 [MPP+, MPP^+]",IC50 [1]: 220000 nM
~2300,TC-T6000,
,"Nc1nc(Cl)nc2c1ncn2[C@@H]1O[C@H](CO)[C@@H](O)[C@H]1O [2-CADO, 2-chloroadenosine]",Km [2]: ~50 µM
